≈ marks a conversion by molar mass, not a printed value.
Columns and labels:
[1] = Stability of dutasteride depending on oil type (degradation products); assay type: physicochemical
Experimental: In Test Example 2, in order to identify the stability of dutasteride in oil, the oil and dutasteride are mixed at a ratio of about 10 to 1, and then a stability test is carried out under an accelerated and stress condition, and a percentage of generated unknown degradation products with respect to the active ingredient is calculated to confirm whether degradation products are generated or not.
In order to identify the stability of dutasteride in mono- and di-glyceride of caprylic/capric acid used as an oil phase of AVODART®, an existing commercially-available formulation, the stability of dutasteride was compared under the stress condition (50° C., 95% RH) and the accelerated condition (40° C., 75% RH). In the comparison test, a sample prepared by dissolving 1.0 mg of dutasteride in 10.0 mg of propylene glycol monocaprylate and stored in a transparent vial and a sample prepared by dissolving 1.0 mg of dutasteride in 10.0 mg of mono- and di-glyceride of caprylic/capric acid and stored in a transparent vial were used.

[2] = Evaluation of oil solubility of dutasteride; assay type: physicochemical; settings: for solubility at 24 h: oil or lipid, thermodynamic from solid
Experimental: In order to measure the solubility of dutasteride in oil, the solubility of dutasteride in glycerol tricaprylate, glycerol tricaprylate/caprate, glycerol tricaprylate/caprate/linoleate, propylene glycol dicaprylocaprate, propylene glycol dicaprate, propylene glycol dicaprylate and propylene glycol monolaurate was measured. In a 10 mL vial, a magnetic bar was placed. After 3 mL of the oil was added thereto, approximately 100 mg of dutasteride was added thereto while stirring under a room temperature (25° C.) condition, and the resultant mixture was stirred at 500 rpm or higher. After stirring for 24 hours, 1 mL of the resultant mixture was taken and separated using a centrifuge, and only a supernatant was taken to quantify an amount of dutasteride dissolved in the oil using liquid chromatography.

percentage of degradation products with respect to dutasteride ([1]; in mono- and di-glyceride of caprylic/capric acid, stress condition (50° C., 95% RH), Week 1): None | percentage of degradation products with respect to dutasteride ([1]; in mono- and di-glyceride of caprylic/capric acid, stress condition (50° C., 95% RH), Week 2): None | percentage of degradation products with respect to dutasteride ([1]; in mono- and di-glyceride of caprylic/capric acid, stress condition (50° C., 95% RH), Week 3): None | percentage of degradation products with respect to dutasteride ([1]; in propylene glycol monolaurate, accelerated condition (40° C., 75% RH), Week 4): not generated and None | percentage of degradation products with respect to dutasteride ([1]; in propylene glycol monolaurate, stress condition (50° C., 95% RH), Week 1): None | percentage of degradation products with respect to dutasteride ([1]; in propylene glycol monolaurate, stress condition (50° C., 95% RH), Week 2): None | percentage of degradation products with respect to dutasteride ([1]; in propylene glycol monolaurate, stress condition (50° C., 95% RH), Week 3): None | solubility at 24 h ([2]; glycerol tricaprylate (oil), in glycerol tricaprylate, 25° C., stirring 24 hours): 840 µg/mL (≈ 1590 µM) | solubility at 24 h ([2]; glycerol tricaprylate/caprate/linoleate (oil), in glycerol tricaprylate/caprate/linoleate, 25° C., stirring 24 hours): 220 µg/mL (≈ 416 µM) | Solubility ([2]; in glycerol tricaprylate/caprate, 25° C., stirring 24 hours): 810 µg/mL (≈ 1530 µM) | solubility at 24 h ([2]; propylene glycol dicaprylocaprate (oil), in propylene glycol dicaprylroccaprate, 25° C., stirring 24 hours): 970 µg/mL (≈ 1840 µM) | higher solubility in propylene glycol monolaurate compared to other tested oils ([2]; propylene glycol monolaurate vs other tested oils): ≥ 10 times
Compound: C[C@]12C=CC(=O)N[C@@H]1CC[C@@H]1[C@@H]2CC[C@]2(C)[C@@H](C(=O)Nc3cc(C(F)(F)F)ccc3C(F)(F)F)CC[C@@H]12 [dutasteride, 17β-N-(2,5-bis(trifluoromethyl))phenylcarbamoyl-4-aza-5α-androst-1-en-3-one]

Reference: US10561619B2, “Pharmaceutical composition comprising dutasteride and propylene glycol monolaurate and preparation method of the same” (Yuyu Pharma, Inc., priority 2015, dated 2020)
